Measured values: patent US9179674B2, “Macrocyclic picolinamide compounds with fungicidal activity” (DOW AGROSCIENCES LLC, priority 2013, dated 2015)
Read-outs that look alike come from different tables or passages of the source.

Key:
Puccinia triticina = assay: Wheat Brown Rust fungicidal activity (PUCCRT); assay type: in vivo; conditions: Puccinia triticina; for pest or weed control at 100 ppm: rate 100 ppm; for pest or weed control at 121.5 g/ha: rate 121.5 g/H
Summary of the method: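 Yuma wheat seedlings at first-leaf stage sprayed to run-off (acetone solution in water with 110 ppm Triton X-100) or track-sprayed as EC with 0.1% Trycol 5941; inoculated with P. triticina spores before or after treatment. Overnight dark dew at 22° C., then greenhouse 24° C.; disease severity 0–100% gives percent control vs untreated.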

[1] = test system: Mycosphaerella graminicola; Anamorph: Septoria tritici; assay: Leaf Blotch of Wheat fungicidal activity (SEPTTR); assay type: in vivo; conditions: Zymoseptoria tritici; for pest or weed control at 100 ppm: rate 100 ppm; for pest or weed control at 121.5 g/ha: rate 121.5 g/H
Summary of the method: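 Acetone solutions diluted with nine volumes of water containing 110 ppm Triton X-100, sprayed to run-off on first-leaf wheat seedlings (Yuma), inoculated with S. tritici before or after treatment. Plants held in dew chambers, then in a 20 °C greenhouse. Disease severity (0–100%) scored when untreated plants fully symptomatic; % control relative to untreated.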

[2] = 24 h, 1 Day Protectant, read-out: Disease control PUCCRT 1DP
[3] = 72 h, 3 Day Curative, read-out: Disease control PUCCRT 3DC
[4] = 24 h, 1 Day Protectant, read-out: Disease control SEPTTR 1DP
[5] = 72 h, 3 Day Curative, read-out: Disease control SEPTTR 3DC

Row | Structure (SMILES) | pest or weed control at 100 ppm (Puccinia triticina; [2]) [%] | pest or weed control at 121.5 g/ha (Puccinia triticina; [2]) [%] | pest or weed control at 100 ppm (Puccinia triticina; [3]) [%] | pest or weed control at 121.5 g/ha (Puccinia triticina; [3]) [%] | melting point [°C] | pest or weed control at 100 ppm [1, 4] [%] | pest or weed control at 121.5 g/ha [1, 4] [%] | pest or weed control at 100 ppm [1, 5] [%] | pest or weed control at 121.5 g/ha [1, 5] [%]
1 | COc1ccnc(C(=O)N[C@H]2COC[C@H](Cc3ccc(C)cc3)[C@@H](OC(=O)C(C)C)[C@H](C)OC2=O)c1OC(C)=O [Compound F54] | 80 to 100 | 80 to 100 | 80 to 100 | 0 to 80 | 88 to 93 | 80 to 100 | 80 to 100 | 80 to 100 | 80 to 100
2 | COc1ccnc(C(=O)N[C@H]2COC[C@H](Cc3ccc(F)cc3)[C@@H](OC(=O)C(C)C)[C@H](C)OC2=O)c1OC(C)=O [Compound F56] | 80 to 100 |  | 80 to 100 |  | 74 to 79 | 80 to 100 |  | 80 to 100 | 
3 | COc1ccnc(C(=O)N[C@H]2COC[C@H](Cc3ccc(Cl)cc3Cl)[C@@H](OCC(C)C)[C@H](C)OC2=O)c1OC(C)=O [Compound F74] | 80 to 100 |  | 80 to 100 |  | 69 to 73 | 80 to 100 |  | 80 to 100 | 
4 | CCCCCO[C@@H]1[C@@H](Cc2ccc(Cl)cc2Cl)COC[C@H](NC(=O)c2nccc(OC)c2OC(C)=O)C(=O)O[C@H]1C [Compound F75] | 80 to 100 | 80 to 100 | 80 to 100 | 0 to 80 | 55 to 59 | 80 to 100 | 80 to 100 | 80 to 100 | 80 to 100
5 | COc1ccnc(C(=O)N[C@H]2COC[C@H](Cc3ccc(Cl)cc3Cl)[C@@H](Oc3ccc(C)cc3)[C@H](C)OC2=O)c1OC(C)=O [Compound F76] | 80 to 100 | 80 to 100 |  | 0 to 80 | 97 to 101 | 0 to 80 | 80 to 100 |  | 
6 | COc1ccnc(C(=O)N[C@H]2COC[C@H](CC3CCCC3)[C@@H](OC(=O)C(C)C)[C@H](C)OC2=O)c1OC(C)=O [Compound F77] | 80 to 100 | 80 to 100 | 80 to 100 | 80 to 100 | 66 to 69 | 80 to 100 | 80 to 100 | 80 to 100 | 80 to 100
7 | COc1ccnc(C(=O)N[C@H]2COC[C@H](CC3CCCC3)[C@@H](OCC(C)C)[C@H](C)OC2=O)c1OC(C)=O [Compound F78] | 80 to 100 |  | 80 to 100 |  | 56 to 59 | 80 to 100 |  | 80 to 100 | 
8 | CCCCCO[C@@H]1[C@@H](CC2CCCC2)COC[C@H](NC(=O)c2nccc(OC)c2OC(C)=O)C(=O)O[C@H]1C [Compound F79] | 80 to 100 | 80 to 100 | 80 to 100 | 0 to 80 | 46 to 51 | 80 to 100 | 80 to 100 | 80 to 100 | 80 to 100
9 | COc1ccnc(C(=O)N[C@H]2COC[C@H](CCc3ccccc3)[C@@H](OC3CCCC3)[C@H](C)OC2=O)c1OCOC(C)=O [Compound F81] | 80 to 100 |  | 80 to 100 |  | 45 to 50 | 80 to 100 |  | 80 to 100 | 
10 | COc1ccnc(C(=O)N[C@H]2COC[C@H](Cc3cccc4ccccc34)[C@@H](OCCCC(F)(F)F)[C@H](C)OC2=O)c1OCOC(C)=O [Compound F84] | 80 to 100 |  | 80 to 100 |  | 61 to 68 | 80 to 100 |  |  | 
11 | COc1ccnc(C(=O)N[C@H]2COC[C@H](Cc3cccc4ccccc34)[C@@H](Oc3ccc(C)cc3)[C@H](C)OC2=O)c1OCOC(C)=O [Compound F85] | 80 to 100 |  | 0 to 80 |  | 83 to 88 | 80 to 100 |  | 0 to 80 | 
12 | CCCCCO[C@@H]1[C@@H](Cc2ccc(C)cc2)COC[C@H](NC(=O)c2nccc(OC)c2OCOC(C)=O)C(=O)O[C@H]1C [Compound F88] | 80 to 100 |  | 80 to 100 |  | 39 to 43 | 80 to 100 |  | 80 to 100 | 
13 | COc1ccnc(C(=O)N[C@H]2COC[C@H](Cc3ccc(C)cc3)[C@@H](OC(=O)C(C)C)[C@H](C)OC2=O)c1OCOC(C)=O [Compound F89] | 80 to 100 |  | 80 to 100 |  | 43 to 47 | 80 to 100 |  | 80 to 100 | 
14 | COc1ccnc(C(=O)N[C@H]2COC[C@H](Cc3ccc(F)cc3)[C@@H](OC(=O)C3CC3)[C@H](C)OC2=O)c1OCOC(C)=O [Compound F90] | 80 to 100 |  | 80 to 100 |  | 59 to 64 | 80 to 100 |  | 80 to 100 | 
15 | COc1ccnc(C(=O)N[C@H]2COC[C@H](Cc3ccc(F)cc3)[C@@H](OC(=O)C(C)C)[C@H](C)OC2=O)c1OCOC(C)=O [Compound F91] | 80 to 100 |  | 80 to 100 |  | 52 to 56 | 80 to 100 |  | 80 to 100 | 
16 | COc1ccnc(C(=O)N[C@H]2COC[C@H](Cc3ccc(Cl)cc3Cl)[C@@H](OCC(C)C)[C@H](C)OC2=O)c1OCOC(C)=O [Compound F111] | 80 to 100 |  | 80 to 100 |  | 49 to 53 | 80 to 100 |  | 80 to 100 | 
17 | CCCCCO[C@@H]1[C@@H](Cc2ccc(Cl)cc2Cl)COC[C@H](NC(=O)c2nccc(OC)c2OCOC(C)=O)C(=O)O[C@H]1C [Compound F112] |  | 80 to 100 |  | 0 to 80 | 53 to 57 |  | 80 to 100 |  | 80 to 100
18 | COc1ccnc(C(=O)N[C@H]2COC[C@H](Cc3ccc(Cl)cc3Cl)[C@@H](OC(=O)C(C)C)[C@H](C)OC2=O)c1OCOC(=O)C(C)C [Compound F119] | 80 to 100 |  | 80 to 100 |  | 57 to 60 | 80 to 100 |  | 80 to 100 | 
